# From patent US20260021061A1, “ARIADNE AND ANALOGS FOR THE TREATMENT OF NEUROLOGICAL AND NEUROMUSCLAR DISORDERS” (priority 2022, published 2026)
# pEC50: −log10 of the molar value.
# Columns and labels:
# [1] = biological target: T1, Cholinesterase, Acetyl, ACES (Homo sapiens, UniProt P22303); assay: SafetyScreen44 104010; format: biochemical; conditions: 10 μM; substrate Acetylthiocholine; recombinant
# T1 construct: Eurofins-Panlabs (contract screen) 104010
# Method: (§1) A broad screen of 44 molecular targets (SafetyScreen44, Eurofins-Panlabs) for Ariadne were performed, which includes G protein-coupled receptors, steroid nuclear receptors, ion channels, neurotransmitter transporters, and metabolic and signaling enzymes. Only two molecular targets, 5-HT2A and 5-HT2B receptors, emerged above the positive hit threshold, defined as 50% displacement of standard radioligands by 10 uM concentration of Ariadne (FIG. 1b, and Table 1).
# (§2) For species, “H”=human, “R”=rat. Test compound screened at all targets at concentration of 10 μM.
# [2] = biological target: T2, Monoamine Oxidase MAO-A (Homo sapiens, UniProt P21397); assay: SafetyScreen44 140010; format: biochemical; conditions: 10 μM; Kynuramine; recombinant
# T2 construct: Eurofins-Panlabs (contract screen) 140010
# Method: as §1, §2
# [3] = biological target: T3, Protein Tyrosine Kinase, LCK (Homo sapiens, UniProt P06239); assay: SafetyScreen44 176020; format: biochemical; conditions: 10 μM; Poly(Glu:Tyr); recombinant
# T3 construct: Eurofins-Panlabs (contract screen) 176020
# Method: as §1, §2
# [4] = biological target: T4, Adrenergic β2 (Homo sapiens, UniProt P07550); assay: SafetyScreen44 204110; format: binding; conditions: 10 μM; [3H]CGP-12177; recombinant
# T4 construct: Eurofins-Panlabs (contract screen) 204110
# Method: as §1, §2
# [5] = biological target: T5, Androgen (Testosterone) (Homo sapiens, UniProt P10275, T878A); assay: SafetyScreen44 206000; format: binding; conditions: 10 μM; [3H]Methyltrienolone; LNCaP clone FGC cells
# T5 construct: Eurofins-Panlabs (contract screen) 206000
# Method: as §1, §2
# [6] = biological target: T6, Dopamine D2S (Homo sapiens, UniProt P14416); assay: SafetyScreen44 219700; format: binding; conditions: 10 μM; [3H]Spiperone; recombinant
# T6 construct: Eurofins-Panlabs (contract screen) 219700
# Method: as §1, §2
# [7] = test system: GABAA, Flunitrazepam, Central; assay: SafetyScreen44 226600; format: binding, rat; conditions: 10 μM; [3H]Flunitrazepam; brain (minus cerebellum)
# Method: as §1, §2
# [8] = biological target: T7, Glucocorticoid (Homo sapiens, UniProt P04150); assay: SafetyScreen44 232030; format: binding; conditions: 10 μM; [3H]Dexamethasone; recombinant
# T7 construct: Eurofins-Panlabs (contract screen) 232030
# Method: as §1, §2
# [9] = biological target: T8, Histamine H2 (Homo sapiens, UniProt P25021); assay: SafetyScreen44 239710; format: binding; conditions: 10 μM; [125I]Aminopotentidine; recombinant
# T8 construct: purchased Eurofins-Panlabs (contract screen SafetyScreen44) assay ID 239710
# Method: as §1, §2
# [10] = biological target: T9, Muscarinic M1 (Homo sapiens, UniProt P11229); assay: SafetyScreen44 252610; format: binding; conditions: 10 μM; [3H]N-Methylscopolamine; recombinant
# T9 construct: purchased Eurofins-Panlabs (contract screen SafetyScreen44) assay ID 252610
# Method: as §1, §2
# [11] = biological target: T10, Muscarinic M3 (Homo sapiens, UniProt P20309); assay: SafetyScreen44 252810; format: binding; conditions: 10 μM; [3H]N-Methylscopolamine; recombinant
# T10 construct: purchased Eurofins-Panlabs (contract screen SafetyScreen44) assay ID 252810
# Method: as §1, §2
# [12] = biological target: T11, Opiate δ1 (OP1, DOP) (Homo sapiens, UniProt P41143); assay: SafetyScreen44 260130; format: binding; conditions: 10 μM; [3H]Naltrindole; recombinant
# T11 construct: purchased Eurofins-Panlabs (contract screen SafetyScreen44) assay ID 260130
# Method: as §1, §2
# [13] = biological target: T12, Serotonin (5-Hydroxytryptamine) 5-HT2A (Homo sapiens, UniProt P28223); assay: SafetyScreen44 271650; format: binding; conditions: 10 μM, [3H]Ketanserin, recombinant
# T12 construct: purchased Eurofins-Panlabs (contract screen SafetyScreen44) assay ID 271650
# Method: as §1, §2
# [14] = biological target: T13, Serotonin (5-Hydroxytryptamine) 5-HT2B (Homo sapiens, UniProt P41595); assay: SafetyScreen44 271700; format: binding; conditions: 10 μM, [3H]Lysergic acid diethylamide (LSD), recombinant
# T13 construct: purchased Eurofins-Panlabs (contract screen SafetyScreen44) assay ID 271700
# Method: as §1, §2
# [15] = biological target: T14, Serotonin (5-Hydroxytryptamine) 5-HT3 (Homo sapiens, UniProt P46098); assay: SafetyScreen44 271910; format: binding; conditions: 10 μM; [3H]GR-65630; recombinant
# T14 construct: purchased Eurofins-Panlabs (contract screen SafetyScreen44) assay ID 271910
# Method: as §1, §2
# [16] = test system: Sodium Channel, Site 2; assay: SafetyScreen44 279510; format: binding, human; conditions: 10 μM; [3H]Batrachotoxinin; recombinant
# Method: as §1, §2
# [17] = biological target: T15, Vasopressin V1A (Homo sapiens, UniProt P37288); assay: SafetyScreen44 287530; format: binding; conditions: 10 μM; [125I]Phenylacetyl Tyr(Me)PheGlnAsnArgProArgTyr; recombinant
# T15 construct: purchased Eurofins-Panlabs (contract screen SafetyScreen44) assay ID 287530
# Method: as §1, §2
# [18] = test system: cats; conditions: in comparison to (R)-DOM; cited from earlier work
# [19] = biological target: 5-HT2B (Homo sapiens, UniProt P41595); assay: Calcium flux assay; format: cell-based; conditions: read-out: Emax relative to 5-HT, calcium flux
# Method: (§3) Therefore, an orthogonal assay measuring calcium flux was also performed for the 5-HT2 receptors (Klein et al., 2020).
# [20] = biological target: T16, 5-HT2C receptor (Homo sapiens, UniProt P28335); assay: Calcium flux assay; format: cell-based; conditions: read-out: Emax relative to 5-HT, calcium flux
# T16 sequence (P28335 33-458): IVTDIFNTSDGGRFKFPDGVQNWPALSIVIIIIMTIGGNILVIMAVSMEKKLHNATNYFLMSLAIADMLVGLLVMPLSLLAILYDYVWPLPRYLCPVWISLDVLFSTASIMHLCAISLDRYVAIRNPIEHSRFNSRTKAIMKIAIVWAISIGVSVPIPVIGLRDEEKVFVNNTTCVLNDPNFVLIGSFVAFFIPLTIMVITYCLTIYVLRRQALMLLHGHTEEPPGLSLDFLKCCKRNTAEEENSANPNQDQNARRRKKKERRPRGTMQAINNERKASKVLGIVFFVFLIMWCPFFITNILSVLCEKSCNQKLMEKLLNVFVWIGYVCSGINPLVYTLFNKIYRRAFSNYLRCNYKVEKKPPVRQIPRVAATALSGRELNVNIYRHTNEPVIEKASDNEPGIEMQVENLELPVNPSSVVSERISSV
# Method: as §3
# [21] = test system: rats; conditions: 10 mg/kg, s.c. or i.p.; absence of stimulant-like effects; cited from earlier work
# [22] = biological target: 5-HT1F receptor (Homo sapiens, UniProt P30939); assay: 5-HTome G protein activation BRET assay
# Sequence of 5-HT1F receptor (P30939 whole entry): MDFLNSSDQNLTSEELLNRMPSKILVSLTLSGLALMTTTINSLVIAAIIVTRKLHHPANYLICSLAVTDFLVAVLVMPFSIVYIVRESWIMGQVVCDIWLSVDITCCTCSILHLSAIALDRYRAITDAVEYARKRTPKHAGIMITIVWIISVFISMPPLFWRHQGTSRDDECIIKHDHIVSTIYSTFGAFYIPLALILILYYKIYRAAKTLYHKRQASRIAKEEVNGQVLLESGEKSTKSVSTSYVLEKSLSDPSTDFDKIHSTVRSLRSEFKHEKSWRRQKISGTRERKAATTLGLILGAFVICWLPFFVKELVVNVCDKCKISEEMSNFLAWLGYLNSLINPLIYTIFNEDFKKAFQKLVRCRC
# Method: All BRET assays were conducted using BRET2 in HEK293T cells (ATCC CRL-11268; mycoplasma-free), which were subcultured in high-glucose DMEM (VWR) supplemented with 10% FBS (Life Technologies).
# Constructs in G protein-dissociation BRET assays were derived from the codon-optimized Tango pcDNA3.1 library (Addgene) with V2tail/TEV/tTA encoding regions deleted to yield “de-Tango” constructs. […] All Gα-Rluc8, Beta, and GFP2-γ constructs were derived from the TRUPATH pcDNA5/FRT/TO library (Addgene). […]
# On the day of the assay, plates were decanted and 20 uL of drug buffer per well (1×HBSS, 20 mM HEPES, pH 7.4) was added using a Multidrop (ThermoFisher Scientific), and plates were allowed to equilibrate at 37° C. in a humidified incubator before receiving drug stimulation. […] Before reading, addition of coelenterazine 400a (5 uM final concentration; Nanolight Technology) was performed by the [sequence]. Immediately after, plates were read at 400 nm Rluc and fluorescent GFP2 emission at 510 nm for BRET2 at 0.8 second per well using a PheraStarFSX (BMB Lab Tech).
# The BRET ratios of 510/400 luminescence were calculated per well and were plotted as a function of drug concentration using Graphpad Prism 5 or 9 (Graphpad Software Inc., San Diego, CA). […]
# T12 sequence (P28223 whole entry): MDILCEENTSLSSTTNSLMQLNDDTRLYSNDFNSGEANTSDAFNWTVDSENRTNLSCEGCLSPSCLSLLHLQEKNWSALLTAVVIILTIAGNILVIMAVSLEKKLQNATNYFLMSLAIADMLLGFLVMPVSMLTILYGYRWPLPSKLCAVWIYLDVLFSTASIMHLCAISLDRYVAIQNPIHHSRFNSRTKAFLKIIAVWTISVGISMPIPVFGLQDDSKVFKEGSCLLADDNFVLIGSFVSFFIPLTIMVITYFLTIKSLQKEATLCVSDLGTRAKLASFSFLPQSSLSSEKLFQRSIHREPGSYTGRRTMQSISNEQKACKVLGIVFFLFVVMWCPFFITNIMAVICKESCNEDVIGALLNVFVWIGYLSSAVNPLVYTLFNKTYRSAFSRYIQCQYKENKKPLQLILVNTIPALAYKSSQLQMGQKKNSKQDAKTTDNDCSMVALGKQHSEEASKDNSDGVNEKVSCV
# T13 sequence (P41595 whole entry): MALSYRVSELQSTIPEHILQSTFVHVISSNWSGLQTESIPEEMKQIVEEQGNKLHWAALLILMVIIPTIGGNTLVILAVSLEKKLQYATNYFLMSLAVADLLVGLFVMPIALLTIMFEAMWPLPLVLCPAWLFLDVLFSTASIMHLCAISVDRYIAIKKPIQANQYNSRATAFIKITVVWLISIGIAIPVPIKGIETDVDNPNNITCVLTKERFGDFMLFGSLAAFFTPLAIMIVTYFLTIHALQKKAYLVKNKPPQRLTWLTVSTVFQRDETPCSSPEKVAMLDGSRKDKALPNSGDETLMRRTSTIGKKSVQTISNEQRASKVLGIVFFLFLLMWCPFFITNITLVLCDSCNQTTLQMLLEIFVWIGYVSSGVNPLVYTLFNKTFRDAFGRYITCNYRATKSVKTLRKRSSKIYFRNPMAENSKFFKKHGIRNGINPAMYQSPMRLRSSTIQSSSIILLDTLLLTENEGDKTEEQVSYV
# T4 sequence (P07550 whole entry): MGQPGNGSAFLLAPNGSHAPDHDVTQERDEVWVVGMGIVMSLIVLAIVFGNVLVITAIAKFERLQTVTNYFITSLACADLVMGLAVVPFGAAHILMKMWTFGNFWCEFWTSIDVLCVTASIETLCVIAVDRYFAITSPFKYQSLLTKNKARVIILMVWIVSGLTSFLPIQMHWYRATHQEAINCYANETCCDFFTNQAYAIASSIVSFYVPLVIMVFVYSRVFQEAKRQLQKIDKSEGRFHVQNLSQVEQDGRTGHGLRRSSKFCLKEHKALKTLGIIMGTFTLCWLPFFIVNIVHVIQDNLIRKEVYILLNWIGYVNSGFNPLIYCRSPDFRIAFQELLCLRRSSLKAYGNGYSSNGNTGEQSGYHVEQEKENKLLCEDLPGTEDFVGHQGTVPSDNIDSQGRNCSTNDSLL
# T7 sequence (P04150 whole entry): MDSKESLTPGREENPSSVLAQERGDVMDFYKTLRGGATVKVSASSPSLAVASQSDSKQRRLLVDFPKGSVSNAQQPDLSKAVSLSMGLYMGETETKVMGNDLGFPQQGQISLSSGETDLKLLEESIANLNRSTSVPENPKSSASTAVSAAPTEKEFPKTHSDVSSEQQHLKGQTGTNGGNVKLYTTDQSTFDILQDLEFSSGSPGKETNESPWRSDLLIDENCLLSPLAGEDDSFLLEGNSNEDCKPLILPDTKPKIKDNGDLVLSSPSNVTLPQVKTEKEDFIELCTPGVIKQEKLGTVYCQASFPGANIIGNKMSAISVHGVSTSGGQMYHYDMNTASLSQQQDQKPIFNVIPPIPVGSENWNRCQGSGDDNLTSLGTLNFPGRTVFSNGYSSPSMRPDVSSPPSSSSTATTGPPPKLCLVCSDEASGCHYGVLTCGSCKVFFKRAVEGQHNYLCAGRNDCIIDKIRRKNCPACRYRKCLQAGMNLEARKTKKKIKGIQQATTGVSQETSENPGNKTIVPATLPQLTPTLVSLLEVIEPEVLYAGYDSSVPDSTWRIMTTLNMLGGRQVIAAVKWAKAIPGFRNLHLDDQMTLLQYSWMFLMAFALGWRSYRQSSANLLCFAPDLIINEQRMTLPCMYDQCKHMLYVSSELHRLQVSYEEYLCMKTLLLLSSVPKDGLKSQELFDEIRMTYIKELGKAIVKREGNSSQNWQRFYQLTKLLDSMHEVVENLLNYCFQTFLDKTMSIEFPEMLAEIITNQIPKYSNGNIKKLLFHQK
# T8 sequence (P25021 whole entry): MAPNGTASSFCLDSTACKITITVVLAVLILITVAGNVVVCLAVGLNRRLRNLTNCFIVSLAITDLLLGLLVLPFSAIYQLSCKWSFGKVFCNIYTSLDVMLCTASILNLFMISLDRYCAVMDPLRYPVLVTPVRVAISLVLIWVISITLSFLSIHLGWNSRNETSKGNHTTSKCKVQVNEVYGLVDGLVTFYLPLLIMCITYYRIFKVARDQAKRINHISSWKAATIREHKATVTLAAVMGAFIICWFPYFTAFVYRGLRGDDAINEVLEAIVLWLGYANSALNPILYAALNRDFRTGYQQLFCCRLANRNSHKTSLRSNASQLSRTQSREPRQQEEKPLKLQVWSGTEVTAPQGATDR
# T3 sequence (P06239 whole entry): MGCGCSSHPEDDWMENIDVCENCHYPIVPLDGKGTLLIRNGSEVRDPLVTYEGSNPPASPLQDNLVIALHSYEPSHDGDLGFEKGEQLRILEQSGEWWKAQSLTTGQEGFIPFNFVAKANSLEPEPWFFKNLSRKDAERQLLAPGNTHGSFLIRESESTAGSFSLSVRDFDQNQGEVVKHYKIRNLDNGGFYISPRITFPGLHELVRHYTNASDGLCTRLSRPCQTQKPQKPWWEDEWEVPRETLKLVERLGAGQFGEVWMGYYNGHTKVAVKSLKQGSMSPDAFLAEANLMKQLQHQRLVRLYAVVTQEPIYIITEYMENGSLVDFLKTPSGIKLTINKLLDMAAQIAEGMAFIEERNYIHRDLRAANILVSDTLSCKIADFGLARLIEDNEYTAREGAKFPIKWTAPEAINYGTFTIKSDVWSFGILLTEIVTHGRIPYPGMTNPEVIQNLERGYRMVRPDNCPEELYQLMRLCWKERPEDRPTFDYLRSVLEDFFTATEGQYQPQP
# T15 sequence (P37288 whole entry): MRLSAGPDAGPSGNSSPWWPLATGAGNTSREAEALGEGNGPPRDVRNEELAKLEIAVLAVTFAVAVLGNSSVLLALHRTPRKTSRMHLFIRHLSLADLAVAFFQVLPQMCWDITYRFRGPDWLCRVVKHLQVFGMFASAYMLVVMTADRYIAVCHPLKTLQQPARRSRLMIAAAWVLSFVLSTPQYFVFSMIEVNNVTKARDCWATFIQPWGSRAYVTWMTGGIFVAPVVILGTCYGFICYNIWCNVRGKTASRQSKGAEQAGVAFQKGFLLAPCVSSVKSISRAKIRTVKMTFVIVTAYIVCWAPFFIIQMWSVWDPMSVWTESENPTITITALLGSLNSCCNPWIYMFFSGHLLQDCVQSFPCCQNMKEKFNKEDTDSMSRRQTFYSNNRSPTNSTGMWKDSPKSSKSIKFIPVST
# T11 sequence (P41143 whole entry): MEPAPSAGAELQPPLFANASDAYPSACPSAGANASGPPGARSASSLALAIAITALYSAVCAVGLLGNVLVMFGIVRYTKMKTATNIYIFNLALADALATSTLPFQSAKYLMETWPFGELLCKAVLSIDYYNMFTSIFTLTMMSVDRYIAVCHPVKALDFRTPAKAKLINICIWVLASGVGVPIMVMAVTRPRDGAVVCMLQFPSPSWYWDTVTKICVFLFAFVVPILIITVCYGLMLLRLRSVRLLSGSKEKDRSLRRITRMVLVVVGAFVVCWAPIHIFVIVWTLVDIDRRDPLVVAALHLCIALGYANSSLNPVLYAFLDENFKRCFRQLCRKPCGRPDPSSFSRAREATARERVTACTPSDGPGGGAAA
# Sequence of 5-HT2B (P41595 whole entry): as the sequence (P41595 whole entry) above
# T14 sequence (P46098 24-478): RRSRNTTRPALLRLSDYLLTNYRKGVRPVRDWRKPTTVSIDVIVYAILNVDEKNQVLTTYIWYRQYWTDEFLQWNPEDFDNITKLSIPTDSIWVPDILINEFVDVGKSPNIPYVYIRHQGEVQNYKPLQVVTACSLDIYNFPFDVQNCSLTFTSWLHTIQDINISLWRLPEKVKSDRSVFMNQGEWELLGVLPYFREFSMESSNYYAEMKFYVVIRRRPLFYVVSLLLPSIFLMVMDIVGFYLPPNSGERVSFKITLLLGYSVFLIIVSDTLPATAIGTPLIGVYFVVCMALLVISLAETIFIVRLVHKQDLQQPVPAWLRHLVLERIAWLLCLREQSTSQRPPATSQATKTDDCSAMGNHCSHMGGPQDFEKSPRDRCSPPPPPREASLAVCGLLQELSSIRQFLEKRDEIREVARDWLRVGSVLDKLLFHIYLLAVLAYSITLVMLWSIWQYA
compound,measurement,setting,value
"CCC(N)Cc1cc(OC)c(C)cc1OC (racemic) [Compound 32, 1-(2,5-dimethoxy-4-methylphenyl)butan-2-amine]",% Response,[1],12%
same,% Response,[2],−3%
same,% Response,[3],13%
same,% Response,[4],22%
same,% Response,[5],−8%
same,% Response,[6],1%
same,% Response,[7],−15%
same,% Response,[8],−5%
same,% Response,[9],21%
same,% Response,[10],−4%
same,% Response,[11],−11%
same,% Response,[12],4%
same,% Response,[13]; listed as (rac)-Ariadne,more than 50%
same,% Response,[13]; listed as Ariadne,72%
same,% Response,[14]; listed as (rac)-Ariadne,more than 50%
same,% Response,[14]; listed as Ariadne,72%
same,% Response,[15],−13%
same,% Response,[16],47%
same,% Response,[17],−5%
same,combined score of DOM-like behavioral features,[18],low combined score
CC[C@@H](N)Cc1cc(OC)c(C)cc1OC [(R)-Ariadne],Emax,[19],64%
same,Emax,[20],60%
same,avoidance behavior,[21],improved avoidance behavior
same,pEC50,[22],~5.30
same,Emax,[22],> 70%
